Data set [1] has as its target T1, AtTA(RHC), (R)-selective amine transaminase (Aspergillus terreus, UniProt Q0C8G1, H55R/F115H/E117C).
T1 construct: gene ATEG_10023
The data set can be described thus: specific activity of purified variant with pyruvate; asymmetric synthesis. The class given is biochemical.

The target of data set [2] is T2, AtTA(wt), (R)-selective amine transaminase (Aspergillus terreus, UniProt Q0C8G1).
T2 construct: gene ATEG_10023
T2 sequence (Q0C8G1 1-325): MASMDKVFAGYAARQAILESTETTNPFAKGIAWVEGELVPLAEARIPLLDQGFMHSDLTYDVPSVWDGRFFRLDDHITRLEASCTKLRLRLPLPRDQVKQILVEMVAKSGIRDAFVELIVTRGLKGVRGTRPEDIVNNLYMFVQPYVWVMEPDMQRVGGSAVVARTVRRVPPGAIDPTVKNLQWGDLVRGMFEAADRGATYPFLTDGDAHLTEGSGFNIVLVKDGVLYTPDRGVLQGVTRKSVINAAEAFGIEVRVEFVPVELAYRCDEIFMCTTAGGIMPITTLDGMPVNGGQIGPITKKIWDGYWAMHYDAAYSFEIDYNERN
Put plainly: specific activity of purified enzyme with pyruvate. Format: biochemical.

The next data set deals with C[C@H](N)c1cccc2ccccc12. The data set can be described thus: purified protein. Format: biochemical, Microbacterium oxydans. The note with it: FAD active site.
Data set [3] has as its target T2, AtTA(wt), (R)-selective amine transaminase. The data set can be described thus: specific activity (benchmark substrate). The class given is biochemical.
The target of data set [4] is T3, PcPAL(wt), phenylalanine ammonia lyase (Petroselinum crispum, UniProt P24481).
T3 construct: gene PAL1
Put plainly: specific activity of purified enzyme. The class given is biochemical.

Data set [5] addresses T4, PcPAL(AI), phenylalanine ammonia lyase (Petroselinum crispum, UniProt P24481, L134A/L256I).
T4 construct: gene PAL1; purified variant of full-length PcPAL, recombinant in E. coli; MIO-dependent homotetramer
The data set can be described thus: specific activity of purified variant (amination of […]). The class given is biochemical.

In data set [6] the target is T3, PcPAL(wt), phenylalanine ammonia lyase. The data set can be described thus: specific activity. Format: biochemical.
Substrate in the data set “purified protein”: C[C@H](N)c1cccc2ccccc12
The data set can be described thus: purified protein. The settings on record: FAD active site. The class given is biochemical, Microbacterium oxydans. This is another data set of the same source.

This is an account of results in paper PMC9718777, “A growth selection system for the directed evolution of amine-forming or converting enzymes” (Nature Communications, 2022).

For the molecule `CC(C)(C)OC(=O)N1CCC[C@@H](N)C1` [(R)-1, (R)-1-Boc-3-aminopiperidine], the “specific activity of purified variant with pyruvate; asymmetric synthesis” value in data set [1] came to 4.2 U/mg. The “specific activity of purified enzyme with pyruvate” value in data set [2] worked out at 0.038 U/mg.
As to “CHAO(MVLM), cyclohexylamine oxidase (Microbacterium oxydans; L182V/M209L/T181M/Y304M)”, the Michaelis-Menten constant (Km) (as a rule, the concentration of substrate that gives half-maximal velocity) in the data set with C[C@H](N)c1cccc2ccccc12 is listed as 2.2 mM.
Turning to `C[C@@H](N)c1ccccc1` [(R)-1-phenylethylamine], the “specific activity (benchmark substrate)” value in data set [3] is listed as 2.9 U/mg.
In the case of `N[C@@H](Cc1cccc2ccccc12)C(=O)O` [(S)-5, (S)-2-amino-3-(naphthalen-1-yl)propanoic acid], in data set [4], the “specific activity of purified enzyme” value was 0.0027 U/mg.
Regarding `O=C(O)/C=C/c1cccc2ccccc12` [compound 6, 6], the “specific activity of purified variant (amination of 6)” value in data set [5] turned out to be 0.55 U/mg.
For `N[C@@H](Cc1ccccc1)C(=O)O` [ʟ-phenylalanine], in data set [6], the specific activity is listed as 0.147 U/mg.

B1: CHAO(wt), cyclohexylamine oxidase (Microbacterium oxydans) (protein)
chain: THLNTYESVTPDPDVDVIIIGAGISGSAAAKALHDQGASVLVVEANDRIGGRTWTEQEGAPGGPIDYGGMFIGETHTHLIELGTSLGLEMTPSGKPGDDTYIVAGNVLRAPDDQLDPNLPFVPEFLSSLKALDELADSVGWDQPWASPNAAALDSKTVATWLAETIESEEVRRLHTVIVNTLLGADPYEVSLLYWAYYVSECEGIQSLMGTRDGAQWAWWFGGAAQVSWRIADAIGRDKFLLEWPVDRIEHDESGVTLFSGQRSLRARHIVIAMSPLAANQIRFEPALPTSRAQLQARAPMGRYYKVQARYPSSFWVEQGYSGALLDTEDVGVFLLDGTKPTDTLATLIGFIGGSNYDRWAAHTPQERERAFLDLLVKAFGPQAADPSYFHETDWTQQEWAKGGPVTYMPPGVLANFGAALRDPVGKVHFAGTEASFQWSGYMEGGVRAGQKAAAAIAEELERTANKGALV
Turning to B1, the Michaelis-Menten constant (Km) in the data set “purified protein” is 4.5 mM.
